# From the supplement of paper PMC4932681
# What was measured:
# BT-474 [1] = assay: drug sensitivity score (DSS) (DSS (dimensionless)); higher = more sensitive; extreme values may be limits of the assay; settings: 72 h
# Description: (§1)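 FIMM FO2B library drugs were tested at 5 concentrations (10,000-fold range) for 72 h, with CellTiter-Glo viability normalised to DMSO and benzethonium chloride controls. The Drug Sensitivity Score (DSS) is computed from the fitted logistic dose-response curve (area-based; 0 = inactive). Resistant lines and the 'in 1µM tamoxifen' arms were tested in 1 µM 4-OH-tamoxifen.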
# MCF-7 Tam1 [2] = assay: as above; settings: 4-OH-tamoxifen in medium 1 µM; 72 h
# Description: as §1
# ZR-75-1 Tam1 [3] = assay: as above; settings: 4-OH-tamoxifen in medium 1 µM; 72 h
# Description: as §1
# T-47D Tam2 = assay: as above; settings: 4-OH-tamoxifen in medium 1 µM; 72 h
# Description: as §1
# MCF-7 [4] = assay: as above; settings: 72 h
# Description: as §1
# ZR-75-1 [5] = assay: as above; settings: 72 h
# Description: as §1
# T-47D Tam1 [6] = assay: as above; settings: 4-OH-tamoxifen in medium 1 µM; 72 h
# Description: as §1
# ZR-75-1 Tam2 [7] = assay: as above; settings: 4-OH-tamoxifen in medium 1 µM; 72 h
# Description: as §1
# T-47D [8] = assay: as above; settings: 72 h
# Description: as §1
# BT-474 Tam2 [9] = assay: as above; settings: 4-OH-tamoxifen in medium 1 µM; 72 h
# Description: as §1
# BT-474 Tam1 [10] = assay: as above; settings: 4-OH-tamoxifen in medium 1 µM; 72 h
# Description: as §1
# BT-474 [11] = assay: relative IC50 (midpoint of fitted logistic curve, plateau may be below 50% inhibition; CellTiter-Glo viability); higher = less potent; settings: 72 h
# Description: (§2)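 FIMM FO2B library drugs were plated at 5 concentrations spanning a 10,000-fold range in 384-well plates. Cells were incubated for 72 h at 37 °C and viability was read by CellTiter-Glo, normalised to DMSO (0% inhibition) and 100 µM benzethonium chloride (100% inhibition). IC50 values come from logistic dose-response fits (Breeze pipeline). Tamoxifen-resistant lines and the 'in 1µM tamoxifen' parental arms were tested in medium with 1 µM 4-OH-tamoxifen.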
# MCF-7 Tam1 [12] = assay: as above; settings: 4-OH-tamoxifen in medium 1 µM; 72 h
# Description: as §2
# ZR-75-1 Tam1 [13] = assay: as above; settings: 4-OH-tamoxifen in medium 1 µM; 72 h
# Description: as §2
# ZR-75-1 [14] = assay: as above; settings: 72 h
# Description: as §2
# T-47D Tam1 [15] = assay: as above; settings: 4-OH-tamoxifen in medium 1 µM; 72 h
# Description: as §2
# ZR-75-1 Tam2 [16] = assay: as above; settings: 4-OH-tamoxifen in medium 1 µM; 72 h
# Description: as §2
# T-47D [17] = assay: as above; settings: 72 h
# Description: as §2
# BT-474 Tam2 [18] = assay: as above; settings: 4-OH-tamoxifen in medium 1 µM; 72 h
# Description: as §2
# BT-474 Tam1 [19] = assay: as above; settings: 4-OH-tamoxifen in medium 1 µM; 72 h
# Description: as §2
# MCF-7 [20] = assay: as above; settings: 72 h
# Description: as §2
SMILES,drug sensitivity score (BT-474 [1]; 4-OH-tamoxifen in medium 0 µM),drug sensitivity score (BT-474 [1]; 4-OH-tamoxifen in medium 1 µM),drug sensitivity score (MCF-7 Tam1 [2]),drug sensitivity score (ZR-75-1 Tam1 [3]),drug sensitivity score (T-47D Tam2),drug sensitivity score (MCF-7 [4]; 4-OH-tamoxifen in medium 0 µM),drug sensitivity score (MCF-7 [4]; 4-OH-tamoxifen in medium 1 µM),drug sensitivity score (ZR-75-1 [5]; 4-OH-tamoxifen in medium 0 µM),drug sensitivity score (ZR-75-1 [5]; 4-OH-tamoxifen in medium 1 µM),drug sensitivity score (T-47D Tam1 [6]),drug sensitivity score (ZR-75-1 Tam2 [7]),drug sensitivity score (T-47D [8]; 4-OH-tamoxifen in medium 0 µM),drug sensitivity score (T-47D [8]; 4-OH-tamoxifen in medium 1 µM),drug sensitivity score (BT-474 Tam2 [9]),drug sensitivity score (BT-474 Tam1 [10]),relative IC50 (BT-474 [11]; 4-OH-tamoxifen in medium 0 µM),relative IC50 (BT-474 [11]; 4-OH-tamoxifen in medium 1 µM),relative IC50 (MCF-7 Tam1 [12]),relative IC50 (ZR-75-1 Tam1 [13]),relative IC50 (ZR-75-1 [14]; 4-OH-tamoxifen in medium 0 µM),relative IC50 (ZR-75-1 [14]; 4-OH-tamoxifen in medium 1 µM),relative IC50 (T-47D Tam1 [15]),relative IC50 (ZR-75-1 Tam2 [16]),relative IC50 (T-47D [17]; 4-OH-tamoxifen in medium 0 µM),relative IC50 (T-47D [17]; 4-OH-tamoxifen in medium 1 µM),relative IC50 (BT-474 Tam2 [18]),relative IC50 (BT-474 Tam1 [19]),relative IC50 (MCF-7 [20]; 4-OH-tamoxifen in medium 0 µM),relative IC50 (MCF-7 [20]; 4-OH-tamoxifen in medium 1 µM)
C=C1C[C@@H]2[C@H](CC[C@]3(C)C(=O)CC[C@@H]23)[C@@]2(C)C=CC(=O)C=C12 [Exemestane],0,0,0,0,0.965,1.3,0,0,0,0,0,0,0,0,0,> 10 µM,> 10 µM,> 10 µM,> 10 µM,> 10 µM,> 10 µM,> 10 µM,> 10 µM,> 10 µM,> 10 µM,> 10 µM,> 10 µM,,
CN1CCN(CCOc2cc(OC3CCOCC3)c3c(Nc4c(Cl)ccc5c4OCO5)ncnc3c2)CC1 [Saracatinib],3.72,9.8,0,0,3.11,2.15,0.814,0,0,5.37,0,1.32,0,10.1,10.8,2.15 µM,1.29 µM,> 10 µM,> 10 µM,> 10 µM,> 10 µM,0.504 µM,> 10 µM,,> 10 µM,1.35 µM,1.17 µM,,
"O=P1(N(CCCl)CCCl)NCCCO1 (stereo unspecified) [Clafen (Cyclophosphamide, Endoxan)]",0,0,0,0,0.114,0,0.034,0,0,0,0,0,0,0,0,> 40 µM,> 40 µM,> 40 µM,> 40 µM,> 40 µM,> 40 µM,> 40 µM,> 40 µM,> 40 µM,> 40 µM,> 40 µM,> 40 µM,> 40 µM,
CCc1c2c(nc3ccc(OC(=O)N4CCC(N5CCCCC5)CC4)cc13)-c1cc3c(c(=O)n1C2)COC(=O)[C@]3(O)CC [Irinotecan],0,0,0,3.21,0.581,1.56,1.5,3.43,1.34,2.72,3.94,4.39,0,0,0,> 10 µM,> 10 µM,> 10 µM,1.39 µM,1.71 µM,,1.73 µM,1.59 µM,1.24 µM,> 10 µM,> 10 µM,> 10 µM,,
CC1(C)CNc2cc(NC(=O)c3cccnc3NCc3ccncc3)ccc21 [Motesanib  (AMG-706)],0,0,0,0,0.166,0,0,0,0,0,0,0,0,0,0,> 10 µM,> 10 µM,> 10 µM,> 10 µM,> 10 µM,> 10 µM,> 10 µM,> 10 µM,> 10 µM,> 10 µM,> 10 µM,> 10 µM,> 10 µM,> 10 µM
O=S(=O)(c1cccc2cnccc12)N1CCCNCC1 [Fasudil  (HA-1077)],1.03,5.24,0,0,1.06,0.328,0,0,0,1.67,0,0,0.739,6.54,6.87,> 50 µM,> 50 µM,> 50 µM,> 50 µM,> 50 µM,> 50 µM,> 50 µM,> 50 µM,> 50 µM,> 50 µM,> 50 µM,> 50 µM,,> 50 µM
CC(O)(CS(=O)(=O)c1ccc(F)cc1)C(=O)Nc1ccc(C#N)c(C(F)(F)F)c1 (stereo unspecified) [Bicalutamide],0,0,0,0,0.0904,0,0,0,0,0,0,0,0,0,0,> 10 µM,> 10 µM,> 10 µM,> 10 µM,> 10 µM,> 10 µM,> 10 µM,> 10 µM,> 10 µM,,> 10 µM,> 10 µM,> 10 µM,> 10 µM
CCCC(CCC)C(=O)O [Valproic acid],0,0,0,0,1.73,0,0,0,0,0,0,0,0.0101,0,0,> 10 µM,> 10 µM,> 10 µM,> 10 µM,> 10 µM,> 10 µM,> 10 µM,> 10 µM,> 10 µM,,> 10 µM,> 10 µM,> 10 µM,> 10 µM
O=C(c1cc(Cc2n[nH]c(=O)c3ccccc23)ccc1F)N1CCN(C(=O)C2CC2)CC1 [Olaparib],0,0,0,0,0.0505,0,0.285,0,0,0,0,0,0,0,0.0009,> 10 µM,> 10 µM,> 10 µM,> 10 µM,> 10 µM,> 10 µM,> 10 µM,> 10 µM,,> 10 µM,> 10 µM,,> 10 µM,
CCCS(=O)(=O)Nc1ccc(F)c(C(=O)c2c[nH]c3ncc(-c4ccc(Cl)cc4)cc23)c1F [Vemurafenib (PLX4032)],0,0.086,0,0,1.67,0,0,0,0,0,0,0,0,0,0,> 10 µM,,> 10 µM,> 10 µM,> 10 µM,,> 10 µM,> 10 µM,> 10 µM,> 10 µM,> 10 µM,> 10 µM,> 10 µM,> 10 µM
CCCCC/C=C/C=C1/C(=O)C=C[C@@H]1C/C=C\CCCC(=O)O [15D-PGJ2],0,0,0,0,0.598,0,0,0,0,0,0,0,0,0,0,> 0.8 µM,> 0.8 µM,> 0.8 µM,> 0.8 µM,> 0.8 µM,> 0.8 µM,> 0.8 µM,> 0.8 µM,> 0.8 µM,> 0.8 µM,> 0.8 µM,> 0.8 µM,> 0.8 µM,> 0.8 µM
CC[C@@]1(O)C(=O)OCc2c1cc1n(c2=O)Cc2cc3c(CN(C)C)c(O)ccc3nc2-1 [Topotecan],0,0,0,3.45,1.16,0.567,2.53,5.48,3.54,5.31,4.55,7.46,0,0,0,> 1 µM,> 1 µM,> 1 µM,0.156 µM,0.0952 µM,0.13 µM,0.1 µM,0.136 µM,0.0779 µM,> 1 µM,> 1 µM,> 1 µM,,
Cc1ccc(-c2cc(C(F)(F)F)nn2-c2ccc(S(N)(=O)=O)cc2)cc1 [Celecoxib],0,0,0,0,0.335,0.0979,0,0,0.0083,0,0,0,0,0,0.0337,> 10 µM,> 10 µM,> 10 µM,> 10 µM,> 10 µM,,> 10 µM,> 10 µM,> 10 µM,> 10 µM,> 10 µM,,,> 10 µM
CC1(C)CCC(c2ccc(Cl)cc2)=C(CN2CCN(c3ccc(C(=O)NS(=O)(=O)c4ccc(N[C@H](CCN5CCOCC5)CSc5ccccc5)c(S(=O)(=O)C(F)(F)F)c4)cc3)CC2)C1 [Navitoclax (ABT-263)],0,4.26,0,0,1.65,1.6,0.949,0,0,14.1,0,0,0,3.9,2.79,,1.61 µM,> 10 µM,> 10 µM,> 10 µM,> 10 µM,0.326 µM,> 10 µM,> 10 µM,> 10 µM,0.723 µM,1.15 µM,,
